Measured values reported in patent US20180117029A1, “Targeting Metabolic Vulnerability in Triple-Negative Breast Cancer” (Beth Israel Deaconess Medical Center, Inc., priority 2016, published 2018).

Key:
SUM-159PT cells [1] = assay: Fluorescence-based deoxyribonucleoside triphosphate assay in SUM-159PT cells; format: cell-based; details: for dCTP and dTTP (pyrimidine nucleoside triphosphate) levels, fluorescence-based assay: 0.5 μM doxorubicin or 12.5 μM cisplatin, 10 hours
Procedure: (§1) Deoxyribonucleoside triphosphate assay: Cells were maintained in full growth medium, and fresh medium was added at the time cells were treated with doxorubicin. In some cases, SUM-159PT cells were switched to Ham's F12 medium lacking glutamine. For metabolite extraction, medium was aspirated and ice-cold 60% (v/v) methanol was added. The insoluble material in lysates was pelleted by centrifugation at 10,000 g for 10 min. The resulting metabolite-containing supernatants were evaporated using a refridgerated SpeedVac. Samples were re-suspended in water and deoxyribonucleside triphosphate levels were measured as previously described (12).

SUM-159PT cells [2] = assay: Propidium iodide viability assay in SUM-159PT cells; format: cell-based; details: for single-agent activity (percentage of dead cells) / sensitization of SUM-159PT cells to doxorubicin (percentage of dead cells): 80 μM PALA; for single-agent activity (percentage of dead cells): 0.3 μM brequinar or 20 μM A771726, without doxorubicin; for sensitization of SUM-159PT cells to doxorubicin (percentage of dead cells): 0.3 μM brequinar or 20 μM A771726 pre-treatment 12 hours
Procedure: Propidium iodide viability assay: Cell viability was assayed with a prodium iodide-based plate reader assay, as previously described (25). Briefly, cells in 96-well plates were treated with a final concentration of 30 μM propidium iodide for 60 minutes at 37° C. The initial fluorescence intensity was measured before digitonin was added to each well at a final concentration of 600 μM. After incubating for 30 minutes at 37° C., the final fluorescence intensity was measured. The fraction of dead cells was calculated by dividing the background-corrected initial fluorescence intensity by the final fluorescence intensity.

[3] = system: CAD, ERK and S6K1 phosphorylation in SUM-159PT cells; assay: Immunoblotting of CAD, ERK and S6K1 phosphorylation in SUM-159PT cells; format: cell-based
Procedure: (§2) Immunoblotting: Cells were washed with ice-cold PBS and lysed in radioimmunoprecipitation buffer (RIPA; 1% NP-40, 0.5% sodium deoxycholate, 0.1% SDS, 150 mmol/L NaCl, 50 mmol/L Tris-HCl, pH 7.5, protease inhibitor cocktail, 50 nmol/L calyculin A, 1 mmol/L sodium pyrophosphate, and 20 mmol/L sodium fluoride). Cell extracts were cleared by centrifugation and protein concentration was measured with the Bio-Rad DC protein assay. Lysates were then resolved on acrylamide gels by SDS-PAGE and transferred electrophoretically to nitrocellulose membrane (Bio-Rad). Blots were blocked in Tris-buffered saline (TBST) buffer (10 mmol/L Tris-HCl, pH 8, 150 mmol/L NaCl and 0.2% Tween 20) containing 5% (w/v) nonfat dry milk and then incubated with primary antibody overnight. Membranes were incubated with HRP-conjugated secondary antibody and developed using enhanced chemiluminescence substrate (EMD Millipore).

[4] = system: ovarian cancer cells (OVCAR3, OVCAR8); assay: Viability by propidium iodide uptake in ovarian cancer cells; format: cell-based, human; details: brequinar pre-treatment 16 h, then doxorubicin 48 hours
Procedure: Since ovarian cancers display an increase in pyrimidine nucleotides following chemotherapy, we investigated the ability of pyrimidine synthesis inhibitors to sensitize these cells to chemotherapy. Cells were treated with varying doses of doxorubicin in combination with the DHODH inhibitor brequinar for 48 hours, and viability measured by propidium iodide uptake. As observed in breast cancer cells, brequinar also sensitized ovarian cancer cells to doxorubicin (FIGS. 8A-B).

[5] = system: human ovarian cancer cell lines (Karumochi, Ovcar3, Ovcar8, Skov3); assay: LC-MS/MS metabolite profiling of ovarian cancer cell lines; format: cell-based; details: 2.5 μM cisplatin or 0.5 μM doxorubicin, 24 hours
Procedure: We treated four different human ovarian cancer cell lines with 2.5 μM cisplatin or 0.5 μM doxorubicin for 24 hours and harvested polar metabolites. The samples were profiled using LC-MS/MS for 303 endogenous metabolites. As in breast cancer cells, we observed increases in pyrimidine metabolites (FIGS. 7A-D).

[6] = system: de novo pyrimidine synthesis pathway in SUM-159PT cells; assay: Isotope labeling with L-glutamine (amide-15N), flux through de novo pyrimidine synthesis; format: cell-based; details: 0.5 μM doxorubicin, 4 hours, then 1 hour labeling
Procedure: Isotope labeling: Ham's F12 medium lacking glutamine (Sigma-Aldrich) was supplemented with 100 μM L-glutamine (amide-^15N). SUM-159PT cells were treated with doxorubicin for 4 hours, at which point medium containing doxorubicin was aspirated and labeled medium was added to the cells. After 1 hour of labeling, cellular metabolites were extracted as described above and quantified using SRM on a 5500 QTRAP mass spectrometer using a protocol to detect ^15N-labelled isotopologues of metabolites in the de novo pyrimidine synthesis pathway.

[7] = system: MDA-MB-231 tumor xenografts; assay: MDA-MB-231 xenograft combination therapy study (tumor volume); format: in vivo, nude mice; details: for growth of MDA-MB-231 tumor xenografts (tumor volume): leflunomide 7.5 mg/kg i.p., doxorubicin 1 mg/kg i.p., 28 days
Procedure: Xenograft studies: Female nude mice (6 weeks old) were purchased from Taconic and maintained and treated under specific pathogen-free conditions. All procedures were approved by the Institutional Animal Care and Use Committee at Beth Israel Deaconess Medical Center (BIDMC) and conform to the federal guidelines for the care and maintenance of laboratory animals. The mice were injected subcutaneously with 4×10^6 MDA-MB-231 cells in medium containing 50% growth-factor-reduced, phenol red-free Matrigel (Corning). Tumor formation was examined every two to three days for the duration of the experiment. […] Tumors were collected and flash-frozen 24 hours after animals were exposed to vehicle or doxorubicin. […] Leflunomide (7.5 mg/kg) was administered on days 1-7, 10, 14, 17, 21 and 24 by i.p. injection. Doxorubicin (1 mg/kg) was administered on days 1, 7, 14 and 21 by i.p. injection. Mice were weighed on days 1, 7, 14, 21 and 28. Tumor volume was calculated using the following equation: Tumor volume=(π/6)(W^2)(L), where W represents width, and L represents length.

[8] = system: CAD phosphorylation in TNBC cell lines (HCC1143, MDA-MB-468, CAL-51 and MDA-MB-231); assay: Immunoblotting of CAD phosphorylation in additional TNBC cell lines; format: cell-based; details: 0.5 μM doxorubicin, 4 hours; HCC1143, MDA-MB-468, CAL51, MDA-MB-231
Procedure: as §2

[9] = system: TNBC cell lines (HCC1143, MDA-MB-468, CAL51 and MDA-MB-231); assay: Fluorescence-based deoxyribonucleoside triphosphate assay in additional TNBC cell lines; details: 0.5 μM doxorubicin, 10 hours; HCC1143, MDA-MB-468, CAL51, MDA-MB-231
Procedure: as §1

SUM-159PT cells [10] = assay: Mitochondrial respiration (oxygen consumption rate, Seahorse analyzer); format: cell-based
Procedure: Mitochondrial respiration: Mitochondrial respiration was assessed using the Seahorse XFe-96 Analyzer (Seahorse Bioscience). SUM-159PT cells (50,000 cells per well) were treated with vehicle control, 0.5 μM Doxorubicin, 20 μM A771726, or the combination (A771726 & Doxorubicin) for 4 hours in normal media conditions. Following this incubation, media was changed to a non-buffered, serum-free Seahorse Media (Seahorse Bioscience, Catalog #102353) supplemented with 5 mM glucose, 2 mM L-glutamine, and 1 mM sodium pyruvate, and the oxygen consumption rate (OCR) was measured. In addition, OCR was measured for 30 minutes upon drug treatment and cells were subsequently challenged with either 1 μM Oligomycin or 0.5 μM Antimycin A to assess their effect on mitochondrial respiration. All experiments were normalized to cell number.

SUM-159PT cells [11] = assay: LC-MS/MS metabolomics profiling of SUM-159PT cells; format: cell-based; details: 0.5 μM doxorubicin, 10 hours, versus vehicle
Procedure: (§3) LC-MS/MS metabolomics profiling: For in vitro studies, SUM-159PT cells were maintained in full growth medium, and fresh medium was added at the time cells were treated with doxorubicin. For metabolite extraction, medium from biological triplicates was aspirated and ice-cold 80% (v/v) methanol was added. Cells and the metabolite-containing supernatants were collected and the insoluble material in lysates was pelleted by centrifugation at 10,000 g for 10 min. The resulting supernatant was evaporated using a refridgerated SpeedVac. For in vivo studies, ice-cold 80% (v/v) methanol was added to flash-frozen tumor tissue. Tissue was homogenized using a TissueLyser (Qiagen). The insoluble material was pelleted by centrifugation at 10,000 g for 10 min. The resulting supernatant was evaporated using a refridgerated SpeedVac. Samples were re-suspended using 20 μl HPLC-grade water for mass spectrometry. Ten microlitres was injected and analysed using a 5500 QTRAP hybrid triple quadrupole mass spectrometer (AB/SCIEX) coupled to a Prominence UFLC HPLC system (Shimadzu) with selected reaction monitoring (SRM). Peak areas from the total ion current for each metabolite SRM transition were integrated using MultiQuant v2.0 software (AB/SCIEX). Data analysis was performed using MetaboAnalyst.

[12] = system: p-H2A.X (Ser139) in SUM-159PT cells; assay: H2A.X phosphorylation (DNA damage) by immunoblotting and immunofluorescence; format: cell-based; details: 0.5 μM doxorubicin, 10 hours
Procedure: as §2
Immunofluorescence: Cells plated on coverslips were fixed with 2% paraformaldehyde for 10 minutes, permeabilized with 0.5% Triton X-100, and blocked with 1% BSA in 20 mmol/L Tris-HCl, pH 7.5, for 20 minutes. Coverslips were then incubated with Alexa Fluor® 647—conjugated anti-phospho H2A.X 5139 antibody (1:100) for 3 hours. […] Images of cells were acquired using a fluorescence microscope (Nikon Eclipse Ti) and digital image analysis software (NIS-Elements, Nikon).

[13] = system: MDA-MB-231 xenograft tumors; assay: LC-MS/MS metabolomics profiling of MDA-MB-231 xenograft tumors; format: in vivo, nude mice; details: 1 mg/kg doxorubicin, 24 hours, versus vehicle-treated tumors
Procedure: as §3

[14] = clinical use; cited from earlier work
tumor xenograft models = details: single agent, references 22, 23; cited from earlier work
[15] = 40 μM PALA, 0.5 μM doxorubicin 10 hours

O=C(O)C[C@H](NC(=O)CP(=O)(O)O)C(=O)O [PALA, N-(phosphonacetyl)-L-aspartate]
effect on doxorubicin-induced alterations in dTTP levels (SUM-159PT cells [1]; [15]): did not inhibit | effect on increase in dCTP levels induced by doxorubicin (SUM-159PT cells [1]; [15]): effectively abrogated | single-agent activity (percentage of dead cells) (SUM-159PT cells [2]): minimal single-agent activity | sensitization of SUM-159PT cells to doxorubicin (percentage of dead cells) (SUM-159PT cells [2]; then doxorubicin 48 hours): dramatically sensitized

N#CC(=C(/N)Sc1ccccc1N)/C(C#N)=C(\N)Sc1ccccc1N [U0126]
effect on doxorubicin-induced CAD Thr456 phosphorylation ([3]; 5 μM U0126 pre-treatment 12 hours, then 0.5 μM doxorubicin 4 hours): blocked | effect on increase in pyrimidine nucleotides following doxorubicin exposure (SUM-159PT cells [1]; 5 μM U0126, 0.5 μM doxorubicin 10 hours): effectively suppressed

Cc1c(-c2ccc(-c3ccccc3F)cc2)nc2ccc(F)cc2c1C(=O)O [brequinar]
single-agent activity (percentage of dead cells) (SUM-159PT cells [2]): minimal single-agent activity | sensitization of SUM-159PT cells to doxorubicin (percentage of dead cells) (SUM-159PT cells [2]; then doxorubicin 48 hours): dramatically sensitized | sensitization of ovarian cancer cells to doxorubicin (viability) [4]: sensitized

N.N.[Cl][Pt][Cl] [cisplatin]
pyrimidine metabolite abundance, LC-MS/MS [5]: increases | dCTP and dTTP (pyrimidine nucleoside triphosphate) levels, fluorescence-based assay (SUM-159PT cells [1]): Elevated levels

COc1cccc2c1C(=O)c1c(O)c3c(c(O)c1C2=O)C[C@@](O)(C(=O)CO)C[C@@H]3O[C@H]1C[C@H](N)[C@H](O)[C@H](C)O1 [doxorubicin]
incorporation of 15N-glutamine label into N-carbamoyl-aspartate [6]: significant increase | growth of MDA-MB-231 tumor xenografts (tumor volume) [7]: cytostatic | CAD Ser1859 phosphorylation [8]: No changes | CAD Thr456 phosphorylation [8]: stimulated | pyrimidine metabolite abundance, LC-MS/MS [5]: increases | abundance of dCTP and dTTP [9]: increased the abundance | oxygen consumption rate (OCR) (SUM-159PT cells [10]; 0.5 μM doxorubicin or 20 μM A771726, 4 hours, 50,000 SUM-159PT cells): negligible effect | sensitivity of OCR to oligomycin and antimycin (SUM-159PT cells [10]; 0.5 μM doxorubicin, 1 μM oligomycin, 0.5 μM Antimycin A): did not affect sensitivity | ERK1/2 phosphorylation ([3]; 0.5 μM doxorubicin): increase | phosphorylation state of CAD at the S6K1 site (Ser1859) ([3]; 0.5 μM doxorubicin): no measurable changes | phosphorylation state of S6K1 ([3]; 0.5 μM doxorubicin): no measurable changes | phosphorylation of CAD at the ERK site (Thr456) ([3]; 0.5 μM doxorubicin, within two hours): striking increase | dCTP and dTTP (pyrimidine nucleoside triphosphate) levels, fluorescence-based assay (SUM-159PT cells [1]): robustly increased | cell viability (percentage of dead cells) (SUM-159PT cells [2]; 0.5 μM doxorubicin alone, 48 hours, SUM-159PT): negligible effects on cell viability | abundance of purine nucleotide species, LC-MS/MS (SUM-159PT cells [11]): elevated | abundance of pyrimidine nucleotide species, LC-MS/MS (SUM-159PT cells [11]): increased the abundance of the majority of pyrimidine nucleotide species | increase in deoxycytidine triphosphate (dCTP) level, LC-MS/MS (SUM-159PT cells [11]): greater than 2 fold | increase in deoxythymidine triphosphate (dTTP) level, LC-MS/MS (SUM-159PT cells [11]): greater than 2 fold | DNA damage (histone H2A.X phosphorylation) [12]: effectively induced DNA damage | abundance of pyrimidine nucleotide species in tumors, LC-MS/MS [13]: significant increase

Cc1oncc1C(=O)Nc1ccc(C(F)(F)F)cc1 [leflunomide]
tolerability in humans [14]: well tolerated | growth of MDA-MB-231 tumor xenografts (tumor volume) [7]: did not significantly affect | sensitization of MDA-MB-231 xenograft tumors to doxorubicin ([7]; leflunomide with doxorubicin 1 mg/kg): drastically sensitizes | anti-tumor activity in tumor xenograft models (tumor xenograft models): anti-tumor activity

O=c1ccn([C@@H]2O[C@H](CO)[C@@H](O)[C@H]2O)c(=O)[nH]1 [uridine]
rescue: effect on efficacy of the A771726 plus doxorubicin combination treatment (percentage of dead cells) (SUM-159PT cells [2]; 100 μM uridine with 20 μM A771726 pre-treatment 12 hours, then doxorubicin 48 hours): completely blocked
